“Also recorded” adds a separate entry of the source. Like-named read-outs stand apart in the source and are kept apart here.
Legend:
prolactin [1] = experiment: Hypoprolactinemic effect in rats, serum prolactin by RIA, at the circadian peak at 4 p.m.; conditions: for inhibition in vivo at 0.5 mg/kg / inhibition in vivo at 5 mg/kg: Rattus norvegicus; for in vivo (hypoprolactinemic) activity, in words: rats, summary statement
prolactin [2] = experiment: Hypoprolactinemic effect in rats, serum prolactin by RIA, sulpiride-treated (hyperprolactinemic) animals; conditions: for inhibition in vivo at 0.5 mg/kg / inhibition in vivo at 5 mg/kg: Rattus norvegicus; for inhibition in vivo at 0.5 mg/kg: read-out: Prolactin Inhibition %, sulpiride 10 γ/kg + 0.5 mg/kg test substance; for inhibition in vivo at 5 mg/kg: read-out: Prolactin Inhibition %, sulpiride 10 γ/kg + 5.0 mg/kg test substance
dopamine receptors = target: T1, dopamine receptors (Rattus norvegicus, UniProt P61169); experiment: Binding of (^3H)-spiroperidole to hypophysis membranes of rat; conditions: for activity at 1 µM: test substance 10^-6 M; for activity at 0.1 µM: test substance 10^-7 M; for binding power / in vitro activity, in words: compared to the parent acid or lipid alone
T1 construct: on hypophysis sinaptosomal rat membranes; from tissue; host or cells: rat hypophysis (pituitary), synaptosomal membranes
Protocol: The in vitro biological activity was determined by comparative tests measuring the binding power of the labelled spiroperidole (^3 H)-spiroperidole on hypophysis sinaptosomal rat membranes according to the method described by Greese et al (GREESE I., SCHNEIDER R. and SNYDER S. H.; H-spiroperidole labels dopamine receptors in pituitary and brain; Europ. J. Pharmacol. 46, 377-381 (1977)).

[3] = Anticonvulsant effects in rat (isoniazide convulsions); type: in vivo
Protocol: The in vivo activity of Product 1 was measured by the method described by Costa et al (E. Costa, A. Guidotti and C. C. Mao; "Evidence for involvement of GABA in the Action of Benzodiazepines: Studies in Rat Cerebellum" in Mechanism of Action of Benzodiazepines; Ed. by E. Costa and P. Greengard, New York, Raven Press. pp. 113-130 (1975)) and by Loescher and Frey (Loesher, W. and Frey, H. H.; "Effect of convulsant and anticonvulsant agents on level and metabolism of gamma-aminobutyric acid in mouse brain"; Naunyn-Schmiedeberg's Arch. Pharmacol. 296, 263-269 (1977)). These tests are based on the known activity of isoniazide to cause convulsions and a lowering of the GABA cerebral levels and the glutamic-decarboxylase enzyme activity.

[4] = General pharmacological activity in vitro and in vivo; conditions: tested in vitro and in vivo in laboratory animals
[5] = system: synaptic membranes of the rat cortex; experiment: Binding of ^3H-GABA on synaptic membranes of the rat cortex (method of Enna and Snyder); conditions: for Product bound % (^3H-GABA binding on rat cortex membranes): ^3H-GABA 2.10^-8 M
Description: Table I presents the results of these tests, expressed in percentage of the fixed active product, comparing the in vitro activity of Product 1 with the activities of the individual components which comprise Product 1.

[6] = read-out: Prolactin Inhibition %, 0.5 mg/kg, circadian peak at 4 p.m.
[7] = read-out: Prolactin Inhibition %, 5.0 mg/kg, circadian peak at 4 p.m.
[8] = read-out: Product bound % ((^3H) spiroperidole binding to hypophysis membranes), (^3H) spiroperidole 2.10^-9 M (2 nM), test substance 10^-4 M
[9] = read-out: Product bound % ((^3H) spiroperidole binding to hypophysis membranes), (^3H) spiroperidole 2.10^-9 M (2 nM), test substance 10^-5 M
[10] = read-out: Product bound % ((^3H) spiroperidole binding to hypophysis membranes), (^3H) spiroperidole 2.10^-9 M (2 nM)
[11] = isoniazide 160 mg/kg (s.c.) alone
[12] = 0.5 mg/kg, circadian peak at 4 p.m.
[13] = 5.0 mg/kg, circadian peak at 4 p.m.
[14] = sulpiride 10 γ/kg + 0.5 mg/kg test substance
[15] = sulpiride 10 γ/kg + 5.0 mg/kg test substance
[16] = isoniazide 160 mg/kg (s.c.) + sphingosine 12 mg/kg (i.p.)
[17] = read-out: Prolactin Inhibition %
[18] = (^3H) spiroperidole 2.10^-9 M (2 nM), test substance 10^-4 M, read-out: Product bound % ((^3H) spiroperidole binding to hypophysis membranes)
[19] = (^3H) spiroperidole 2.10^-9 M (2 nM), test substance 10^-5 M, read-out: Product bound % ((^3H) spiroperidole binding to hypophysis membranes)
[20] = (^3H) spiroperidole 2.10^-9 M (2 nM), read-out: Product bound % ((^3H) spiroperidole binding to hypophysis membranes)

T1 sequence (P61169 whole entry): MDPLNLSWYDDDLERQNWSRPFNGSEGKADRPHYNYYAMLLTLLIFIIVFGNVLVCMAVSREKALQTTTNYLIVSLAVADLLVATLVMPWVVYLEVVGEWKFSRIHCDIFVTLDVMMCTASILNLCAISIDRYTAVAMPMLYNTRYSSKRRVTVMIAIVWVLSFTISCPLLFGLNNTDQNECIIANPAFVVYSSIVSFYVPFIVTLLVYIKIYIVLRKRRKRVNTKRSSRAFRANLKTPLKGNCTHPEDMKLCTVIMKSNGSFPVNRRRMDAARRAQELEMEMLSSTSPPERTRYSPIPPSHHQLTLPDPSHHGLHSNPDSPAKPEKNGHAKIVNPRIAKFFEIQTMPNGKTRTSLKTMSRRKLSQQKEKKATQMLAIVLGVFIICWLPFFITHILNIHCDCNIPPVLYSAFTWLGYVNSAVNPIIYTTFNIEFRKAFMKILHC

Structure (SMILES)	inhibition in vivo at 0.5 mg/kg (prolactin [1]; [6]) [%]	inhibition in vivo at 5 mg/kg (prolactin [1]; [7]) [%]	in vivo (hypoprolactinemic) activity, in words (prolactin [1])	inhibition in vivo at 0.5 mg/kg (prolactin [2]) [%]	activity at 100 µM (dopamine receptors; [8]) [%]	activity at 10 µM (dopamine receptors; [9]) [%]	activity at 1 µM (dopamine receptors; [10]) [%]	activity at 0.1 µM (dopamine receptors; [10]) [%]	Prolactin (prolactin [1]; [12]) [ng/mL]	Prolactin (prolactin [1]; [13]) [ng/mL]	inhibition in vivo at 5 mg/kg (prolactin [2]) [%]	Prolactin (prolactin [2]; [14]) [ng/mL]	Prolactin (prolactin [2]; [15]) [ng/mL]	binding power / in vitro activity, in words (dopamine receptors)	further results
CN1C[C@H](C(=O)O)CC2c3cccc4[nH]cc(c34)C[C@H]21 (some centres unmarked) [dihydrolysergic acid]	0	25	weak effect; also recorded: essentially inactive when administered alone	0	45	95	100	100							Product bound % ((^3H) spiroperidole binding to hypophysis membranes) (dopamine receptors; (^3H) spiroperidole 2.10^-9 M (2 nM), test substance 10^-4 M, 100 µM): 60%; Product bound % ((^3H) spiroperidole binding to hypophysis membranes) (dopamine receptors; (^3H) spiroperidole 2.10^-9 M (2 nM), test substance 10^-5 M, 10 µM): 90%
NNC(=O)c1ccncc1 [Isoniazide, isoniazide]															Latency of the convulsions measured [3, 11]: 3070 ± 110 s; Number of animals in convulsions [3, 11]: 26/30; Number of dead animals [3, 11]: 15
CCCCCCCCCCCCCC=CC(O)C(CO)NC(=O)C1CC2c3cccc4[nH]cc(c34)CC2N(C)C1 (centres unmarked) [Product 3, Dihydrolysergylsphingosine amide]	42	52	significant biological activity	30	10	40	90	100	38.7 ± 4.7	32.2 ± 5.7	60	53.7 ± 8.5	31.2 ± 2.5	significant and far superior, under the same experimental conditions, to that of dihydrolysergic acid or sphingosine alone	action in the central nervous system, in words [4]: capable of acting directly in the central nervous system
CN1C[C@@H](C(=O)O)C=C2c3cccc4[nH]cc(c34)C[C@H]21 [isolysergic acid]			essentially inactive when administered alone												
CCCCCCCCCCCCC/C=C/[C@@H](O)[C@@H](N)CO [sphingosine]	0	0		0	100	100	100	100							Product bound % (^3H-GABA binding on rat cortex membranes) ([5]; test substance 10^-4 M, 100 µM): 100%; Product bound % (^3H-GABA binding on rat cortex membranes) ([5]; test substance 10^-5 M, 10 µM): 100%; Product bound % (^3H-GABA binding on rat cortex membranes) ([5]; test substance 10^-6 M, 1 µM): 100%; Product bound % (^3H-GABA binding on rat cortex membranes) ([5]; test substance 10^-7 M, 0.1 µM): 100%; Product bound % (^3H-GABA binding on rat cortex membranes) ([5]; test substance 10^-8 M, 0.01 µM): 100%; in vitro biological activity (GABA binding), in words ([5]; summary of Table I): no biological activity; Prolactin Inhibition % (prolactin [1]; [12]): 0%; Prolactin Inhibition % (prolactin [1]; [13]): 0%; Prolactin Inhibition % (prolactin [2]; [14]): 0%; Latency of the convulsions measured [3, 16]: 3700 ± 200 s; Number of animals in convulsions [3, 16]: 20/30; Number of dead animals [3, 16]: 9
CCCCCCCCCCCCCCCC(O)C(CO)NC(=O)C1CC2c3cccc4[nH]cc(c34)CC2N(C)C1 (centres unmarked) [Product 15, Dihydrolysergyldihydrosphingosine amide]	35	50	far superior to either dihydrolysergic acid or dihydrosphingosine alone	44	20	30	90	100	40.0 ± 5.6	31.0 ± 3.4	55	48.0 ± 4.0	39.0 ± 6.0	far superior to either dihydrolysergic acid or dihydrosphingosine alone	action in the central nervous system, in words [4]: capable of acting directly in the central nervous system
CN1C[C@H](C(=O)O)C=C2c3cccc4[nH]cc(c34)C[C@H]21 [lysergic acid]	0	20	essentially inactive when administered alone	13	60	90	100	100	61.0 ± 3.8	52.0 ± 6.2	16	76.0 ± 9.0	73.0 ± 10.0		
CCCCCCCCCCCCCC=CC(O)C(N)COC1OC(CO)C(O)C(O)C1O (centres unmarked) [psychosine, Psychosine or galactosylsphingosine]									50.0 ± 5.0	41.0 ± 5.0		70.0 ± 6.0	61.0 ± 7.0		inhibition in vivo at 0.5 mg/kg (prolactin [1]; [17]): 14%; inhibition in vivo at 5 mg/kg (prolactin [1]; [17]): 30%; activity at 100 µM (dopamine receptors; [18]): 60%; activity at 10 µM (dopamine receptors; [19]): 90%; activity at 1 µM (dopamine receptors; [20]): 100%; activity at 0.1 µM (dopamine receptors; [20]): 100%
CCCCCCCCCCCCCC=CC(O)C(COC1OC(CO)C(O)C(O)C1O)NC(=O)C1CC2c3cccc4[nH]cc(c34)CC2N(C)C1 (centres unmarked) [Product 16, Dihydrolysergylpsychosine amide]	31	47	far superior to either dihydrolysergic acid or psychosine alone	37	25	45	80	100	40.0 ± 7.0	31.0 ± 6.0	52	51.0 ± 7.0	39.0 ± 4.0	far superior to either dihydrolysergic acid or psychosine alone	action in the central nervous system, in words [4]: capable of acting directly in the central nervous system
CCCCCCCCCCCCCC=CC(O)C(CO)NC(=O)[C@@H]1C=C2c3cccc4[nH]cc(c34)C[C@H]2N(C)C1 (some centres unmarked) [Product 2.2, Lysergylsphingosine-amide]	27	39	far superior to either lysergic acid or sphingosine alone	32	35	55	85	100	48.0 ± 4.8	40.0 ± 2.6	44	59.0 ± 6.0	49.0 ± 5.0	far superior to either lysergic acid or sphingosine alone	
CCCCCCCCCCCCCCCC(O)C(N)CO (centres unmarked) [dihydrosphingosine]									66.0 ± 4.2	60.0 ± 2.8		81.0 ± 11.0	74.0 ± 6.0		inhibition in vivo at 0.5 mg/kg (prolactin [1]; [17]): 0%; inhibition in vivo at 5 mg/kg (prolactin [1]; [17]): 0%; activity at 100 µM (dopamine receptors; [18]): 100%; activity at 10 µM (dopamine receptors; [19]): 100%; activity at 1 µM (dopamine receptors; [20]): 100%; activity at 0.1 µM (dopamine receptors; [20]): 100%

Reference: US4897382A, “Organic amide compounds derived from nitrogenous lipids” (priority 1981, dated 1990)
